This passage reports IC50 results from BindingDB's records for doi:10.1016/j.chembiol.2008.07.013 (University of Connecticut, 2008).

pIC50: −log10 of the molar value.

This test deals with T1, Dihydrofolate reductase (Candida glabrata (strain ATCC 2001 / BCRC 20586 / JCM 3761 / NBRC 0622 / NRRL Y-65 / CBS 138), UniProt Q6FPH0).
T1 sequence (Q6FPH0 whole entry): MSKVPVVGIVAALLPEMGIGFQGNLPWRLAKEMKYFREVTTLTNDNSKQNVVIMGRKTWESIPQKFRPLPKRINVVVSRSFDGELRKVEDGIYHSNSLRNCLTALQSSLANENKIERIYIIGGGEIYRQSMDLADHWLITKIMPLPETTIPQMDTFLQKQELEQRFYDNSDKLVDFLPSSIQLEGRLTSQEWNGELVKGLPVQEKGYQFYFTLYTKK
Briefly: Enzyme Inhibition Assay. Particulars: 25 °C. The source says:
Enzyme inhibition assay using CgDHFR and hDHFR performed at 25 degree Celsius by monitoring the rate of enzyme-dependent NADPH oxidation at an absorbance of 340 nm over several minutes.
As usually defined, the pIC50 is −log10 of the IC50, conventionally taken in molar units. `CCc1nc(N)nc(N)c1C#CCc1cc(OC)ccc1OC` [5-[3-(2,5-dimethoxyphenyl)prop-1-yn-1-yl]-6-ethylpyrimidine-2,4-diamine] gave a pIC50 of 8.09. The figure for `COc1ccc(OC)c(CC#Cc2cnc(N)nc2N)c1` [5-[3-(2,5-dimethoxyphenyl)prop-1-yn-1-yl]pyrimidine-2,4-diamine] is 7.68; for `COc1cc(CC#Cc2cnc(N)nc2N)cc(OC)c1OC` [JMC517532 Compound 3] it is 7.66.

`COc1cc([C@@H](C#Cc2c(C)nc(N)nc2N)OC)cc(OC)c1OC` [JMC517532 Compound 10] gave a pIC50 of 7.52. Under `COc1ccc(OC)c(CC#Cc2c(C)nc(N)nc2N)c1` [Propargyl-linked, 10] stands 7.49; under `COc1cc(C(C)C#Cc2c(C)nc(N)nc2N)cc(OC)c1OC` (configuration not stated) [Propargyl-substituted antifolate, 8], 7.60; under `COc1cc([C@@H](O)C#Cc2c(C)nc(N)nc2N)cc(OC)c1OC` [Propargyl-substituted antifolate, 9], 7.41.
